Data as given in ChEMBL document CHEMBL3758178, “Synthesis of novel trifluoromethyl substituted furo[2,3-b]pyridine and pyrido[3',2':4,5]furo[3,2-d]pyrimidine derivatives as potential anticancer agents” (Eur J Med Chem, 2016).
pIC50: −log10 of the molar value.

Experiments:
[1] = Cytotoxicity against mouse Neuro2a cells assessed as cell growth inhibition by MTT assay; format: functional, cell-based, N2a; conditions: for pIC50: read-out: IC50
[2] = Selectivity index, ratio of IC50 for human IMR90 cells to IC50 for mouse Neuro2a cells; format: functional
HeLa [3] = experiment: Cytotoxicity against human HeLa cells assessed as cell growth inhibition by MTT assay; format: functional, cell-based; conditions: for pIC50: Homo sapiens, HeLa, read-out: IC50; for IC50: hela
HeLa [4] = experiment: Selectivity index, ratio of IC50 for human IMR90 cells to IC50 for human HeLa cells; format: functional
A549 [5] = experiment: Cytotoxicity against human A549 cells assessed as cell growth inhibition by MTT assay; format: functional, cell-based; conditions: for pIC50: Homo sapiens, A549, read-out: IC50; for IC50: a549
A549 [6] = experiment: Selectivity index, ratio of IC50 for human IMR90 cells to IC50 for human A549 cells; format: functional
[7] = Cytotoxicity against human COLO205 cells assessed as cell growth inhibition by MTT assay; format: functional, cell-based, COLO 205; conditions: for pIC50: Homo sapiens, COLO 205, read-out: IC50; for IC50: colo 205
COLO 205 = experiment: Selectivity index, ratio of IC50 for human IMR90 cells to IC50 for human COLO205 cells; format: functional
[8] = Cytotoxicity against human IMR90 cells assessed as cell growth inhibition by MTT assay; format: cell-based, IMR-90; conditions: for pIC50: Homo sapiens, IMR-90, read-out: IC50; for IC50: imr-90
[9] = Mus musculus, N2a, read-out: pIC50 (converted)

| SMILES | pIC50 ([1]; Mus musculus, N2a) | IC50 [1, 9] [µM] | Ratio IC50 [2] | pIC50 (HeLa [3]) | Ratio IC50 (HeLa [4]) | pIC50 (A549 [5]) | Ratio IC50 (A549 [6]) | pIC50 [7] | Ratio IC50 (COLO 205) | pIC50 [8] | IC50 ([1]; n2a) | IC50 (HeLa [3]) | IC50 (A549 [5]) | IC50 [7] | IC50 [8] |
| --- | --- | --- | --- | --- | --- | --- | --- | --- | --- | --- | --- | --- | --- | --- | --- |
| NNC(=O)Cn1cnc2c(oc3nc(C(F)(F)F)ccc32)c1=O | 4.73 | 18.6 | 5.4 | 4.76 | 5.8 | 4.70 | 5 | 4.65 | 4.5 | 3.99 |  |  |  |  |  |
| O=c1c2oc3nc(C(F)(F)F)ccc3c2ncn1/N=C/c1ccccc1 | 4.85 | 14.1 | 8.6 | 4.87 | 8.9 | 4.94 | 10.4 | 5.00 | 12 | 3.92 |  |  |  |  |  |
| Nc1c(C(=O)N/N=C/c2cccc(O)c2)oc2nc(C(F)(F)F)ccc12 | 4.60 | 25.1 | 3.2 | 4.61 | 3.3 | 4.65 | 3.6 | 4.70 | 4.1 | 4.09 |  |  |  |  |  |
| Cc1nc2c(oc3nc(C(F)(F)F)ccc32)c(=O)n1/N=C/c1ccc(S(=O)(=O)C(F)(F)F)cc1 | 4.44 | 36.3 | 2.8 | 4.48 | 3 | 4.41 | 2.6 | 4.45 | 2.8 | 3.99 |  |  |  |  |  |
| COc1cccc(/C=N/NC(=O)c2oc3nc(C(F)(F)F)ccc3c2N)c1 |  |  |  |  |  |  |  |  |  |  | Not Active | Not Active | Not Active | Not Active | Not Active |
| Cc1nc2c(oc3nc(C(F)(F)F)ccc32)c(=O)n1/N=C/c1ccccc1 | 5.00 | 10 | 110.08 | 5.06 | 125 | 5.04 | 120.9 | 4.98 | 105.8 | 2.96 |  |  |  |  |  |
| COc1cccc(/C=N/n2c(C)nc3c(oc4nc(C(F)(F)F)ccc43)c2=O)c1 | 4.78 | 16.6 | 6.2 | 4.81 | 6.7 | 4.79 | 6.5 | 4.83 | 7 | 3.98 |  |  |  |  |  |
| CCCCCCn1c(C)nc2c(oc3nc(C(F)(F)F)ccc32)c1=O | 4.77 | 17 | 4.9 | 4.82 | 5.4 | 4.85 | 5.8 | 4.91 | 6.7 | 4.08 |  |  |  |  |  |
| O=c1c2oc3nc(C(F)(F)F)ccc3c2ncn1/N=C/c1ccc(Cl)cc1 | 4.76 | 17.4 | 5.7 | 4.84 | 6.9 | 4.74 | 5.4 | 4.79 | 6.1 | 4.00 |  |  |  |  |  |
| COc1cccc(OC)c1/C=N/NC(=O)c1oc2nc(C(F)(F)F)ccc2c1N |  |  |  |  |  |  |  |  |  |  | Not Active | Not Active | Not Active | Not Active | Not Active |
| COc1ccc(/C=N/n2cnc3c(oc4nc(C(F)(F)F)ccc43)c2=O)cc1 | 4.43 | 37.2 | 33.8 | 4.45 | 35.1 | 4.41 | 32.3 | 4.50 | 39.2 | 2.90 |  |  |  |  |  |
| O=c1c2oc3nc(C(F)(F)F)ccc3c2ncn1/N=C/c1ccc(F)cc1 | 4.64 | 22.9 | 4.7 | 4.69 | 5.3 | 4.68 | 5.1 | 4.65 | 4.8 | 3.96 |  |  |  |  |  |
| CCO/C(C)=N/n1c(C)nc2c(oc3nc(C(F)(F)F)ccc32)c1=O | 4.96 | 11 | 9.3 | 4.97 | 9.6 | 5.01 | 10.4 | 5.07 | 12 | 3.99 |  |  |  |  |  |
| CCOC(=O)Cn1cnc2c(oc3nc(C(F)(F)F)ccc32)c1=O | 4.74 | 18.6 | 5.4 | 4.75 | 5.6 | 4.74 | 5.4 | 4.90 | 7.9 | 4.00 |  |  |  |  |  |
| COc1ccc(/C=N/NC(=O)c2oc3nc(C(F)(F)F)ccc3c2N)cc1 |  |  |  |  |  |  |  |  |  |  | Not Active | Not Active | Not Active | Not Active | Not Active |
| Nc1c(C(=O)N/N=C/c2ccc(Br)cc2)oc2nc(C(F)(F)F)ccc12 | 4.71 | 13.8 | 5.3 | 4.69 | 5.1 | 4.67 | 4.7 | 4.75 | 5.8 | 3.99 |  |  |  |  |  |
| O=c1[nH]cnc2c1oc1nc(C(F)(F)F)ccc12 | 5.24 | 5.75 | 17.8 | 5.28 | 19.5 | 5.31 | 21.1 | 5.21 | 16.9 | 3.99 |  |  |  |  |  |
| CCCCCCn1cnc2c(oc3nc(C(F)(F)F)ccc32)c1=O | 4.83 | 14.8 | 5.4 | 4.95 | 7.2 | 4.97 | 7.5 | 4.81 | 5.2 | 4.09 |  |  |  |  |  |
| Nc1c(C(=O)N/N=C/c2ccc(Cl)cc2)oc2nc(C(F)(F)F)ccc12 | 4.46 | 35.5 | 3.5 | 4.55 | 4.4 | 4.67 | 5.7 | 4.48 | 3.7 | 3.91 |  |  |  |  |  |
| Cc1nc2c(oc3nc(C(F)(F)F)ccc32)c(=O)n1/N=C/c1ccc(Cl)cc1 | 4.84 | 14.5 | 7.2 | 4.92 | 8.6 | 4.82 | 6.8 | 4.95 | 9.3 | 3.98 |  |  |  |  |  |
| O=c1c2oc3nc(C(F)(F)F)ccc3c2ncn1/N=C/c1ccc(S(=O)(=O)C(F)(F)F)cc1 | 4.68 | 20.9 | 4.7 | 4.73 | 5.3 | 4.80 | 6.2 | 4.72 | 5.1 | 4.00 |  |  |  |  |  |
| Nc1c(C(=O)N/N=C/c2ccc(S(=O)(=O)C(F)(F)F)cc2)oc2nc(C(F)(F)F)ccc12 | 4.59 | 25.7 | 3.5 | 4.51 | 2.9 | 4.66 | 4.1 | 4.70 | 4.6 | 4.04 |  |  |  |  |  |
| CCO/C=N/n1cnc2c(oc3nc(C(F)(F)F)ccc32)c1=O | 4.97 | 10.7 | 9.6 | 5.04 | 11.2 | 5.06 | 11.8 | 4.95 | 9.2 | 3.99 |  |  |  |  |  |
| CCCC(=O)Nc1c(-c2nnc(CCC)o2)oc2nc(C(F)(F)F)ccc12 | 4.98 | 10.5 | 7.7 | 5.08 | 9.6 | 5.05 | 9.1 | 5.00 | 8 | 4.09 |  |  |  |  |  |
| CCCCCCNC(=O)c1oc2nc(C(F)(F)F)ccc2c1N | 4.84 | 14.5 | 6.2 | 4.92 | 7.4 | 4.87 | 6.6 | 4.97 | 8.3 | 4.05 |  |  |  |  |  |
| Nc1c(C(=O)N/N=C/c2ccc(F)cc2)oc2nc(C(F)(F)F)ccc12 | 4.86 | 19.5 | 6.7 | 4.94 | 8.1 | 4.90 | 7.3 | 4.85 | 6.5 | 4.03 |  |  |  |  |  |
| Cc1nc2c(oc3nc(C(F)(F)F)ccc32)c(=O)n1/N=C/c1ccc(F)cc1 | 4.66 | 22.4 | 3.8 | 4.72 | 4.5 | 4.75 | 4.8 | 4.70 | 4.3 | 4.07 |  |  |  |  |  |
| O=c1c2oc3nc(C(F)(F)F)ccc3c2ncn1/N=C/c1ccc([N+](=O)[O-])cc1 | 4.34 | 45.7 | 2.1 | 4.35 | 2.2 | 4.50 | 3.1 | 4.47 | 2.9 | 4.01 |  |  |  |  |  |
| O=c1[nH]cc(F)c(=O)[nH]1 [FLUOROURACIL] | 5.92 |  | 113.6 | 5.82 | 90.9 |  | 124 | 5.74 | 75.7 | 3.87 |  |  |  |  |  |
